Test results as given in the supplement of paper PMC10307832.

Experiments:
Test in all cases: relative viability (nuclei count vs DMSO), 5 days (fraction); higher = more cells survive
SW 1573 = system: SW 1573
In short: (§1)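 Relative viability divides the nuclei count in treated wells by that in vehicle wells. Lung cancer cell lines were seeded in 1536-well plates, dosed by pin tool the next day, and fixed and stained after 5 days in one step with final 0.05% Triton X-100, 1% formaldehyde and 1 ug/ml Hoechst. Dosing was a single drug or a fixed anchor-drug dose plus five library-drug doses (not always all listed) in √10 steps, and values are medians of duplicate plates imaged at 4×.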

SW 900 = system: SW 900
In short: as §1

NCI-H838 = system: NCI-H838
In short: as §1

UMC-11 = system: UMC-11
In short: as §1

NCI-H23 = system: NCI-H23
In short: as §1

NCI-H2023 = system: NCI-H2023
In short: as §1

LC-2-ad = system: LC-2-ad
In short: as §1

NCI-H1975 = system: NCI-H1975
In short: as §1

NCI-H1651 = system: NCI-H1651
In short: as §1

NCI-H2009 = system: NCI-H2009
In short: as §1

NCI-H650 = system: NCI-H650
In short: as §1

NCI-H1650 = system: NCI-H1650
In short: as §1

EPLC-272H = system: EPLC-272H
In short: as §1

HARA = system: HARA
In short: as §1

NCI-H2228 = system: NCI-H2228
In short: as §1

NCI-H2087 = system: NCI-H2087
In short: as §1

NCI-H2170 = system: NCI-H2170
In short: as §1

LOU-NH91 = system: LOU-NH91
In short: as §1

NCI-H2085 = system: NCI-H2085
In short: as §1

NCI-H441 = system: NCI-H441
In short: as §1

PC-3 [JPC-3] = system: PC-3 [JPC-3]
In short: as §1

H3255 = system: H3255
In short: as §1

Which results are given for `CN1CCN(CCOc2cc(OC3CCOCC3)c3c(Nc4c(Cl)ccc5c4OCO5)ncnc3c2)CC1` [Saracatinib] + Nc1nc2[nH]cc(CCc3ccc(C(=O)N[C@@H](CCC(=O)O)C(=O)O)cc3)c2c(=O)[nH]1 [Pemetrexed] (partner 0.2 µM)?
relative viability (SW 1573; first compound 0.02 µM): 0.823; relative viability (SW 1573; first compound 0.2 µM): 0.899; relative viability (SW 1573; first compound 0.6325 µM): 0.794; relative viability (SW 1573; first compound 2 µM): 0.767; relative viability (SW 900; first compound 0.02 µM): 0.559; relative viability (SW 900; first compound 0.2 µM): 0.361; relative viability (SW 900; first compound 0.6325 µM): 0.506; relative viability (SW 900; first compound 2 µM): 0.408; relative viability (NCI-H838; first compound 0.02 µM): 0.254; relative viability (NCI-H838; first compound 0.2 µM): 0.204; relative viability (NCI-H838; first compound 0.6325 µM): 0.248; relative viability (NCI-H838; first compound 2 µM): 0.227; relative viability (UMC-11; first compound 0.02 µM): 0.809; relative viability (UMC-11; first compound 0.2 µM): 0.699; relative viability (UMC-11; first compound 0.6325 µM): 0.898; relative viability (UMC-11; first compound 2 µM): 0.607; relative viability (NCI-H23; first compound 0.02 µM): 0.683; relative viability (NCI-H23; first compound 0.6325 µM): 0.613; relative viability (NCI-H23; first compound 2 µM): 0.519; relative viability (NCI-H2023; first compound 0.02 µM): 0.229; relative viability (NCI-H2023; first compound 0.2 µM): 0.189; relative viability (NCI-H2023; first compound 0.6325 µM): 0.202; relative viability (NCI-H2023; first compound 2 µM): 0.191; relative viability (LC-2-ad; first compound 0.02 µM): 0.286; relative viability (LC-2-ad; first compound 0.2 µM): 0.282; relative viability (LC-2-ad; first compound 0.6325 µM): 0.268; relative viability (LC-2-ad; first compound 2 µM): 0.27; relative viability (NCI-H1975; first compound 0.02 µM): 0.276; relative viability (NCI-H1975; first compound 0.2 µM): 0.265; relative viability (NCI-H1975; first compound 0.6325 µM): 0.275; relative viability (NCI-H1975; first compound 2 µM): 0.253; relative viability (NCI-H1651; first compound 0.02 µM): 0.633; relative viability (NCI-H1651; first compound 0.2 µM): 0.566; relative viability (NCI-H1651; first compound 0.6325 µM): 0.621; relative viability (NCI-H1651; first compound 2 µM): 0.581; relative viability (NCI-H2009; first compound 0.02 µM): 1.01; relative viability (NCI-H2009; first compound 0.2 µM): 0.962; relative viability (NCI-H2009; first compound 0.6325 µM): 0.993; relative viability (NCI-H2009; first compound 2 µM): 1.05; relative viability (NCI-H650; first compound 0.02 µM): 0.962; relative viability (NCI-H650; first compound 0.2 µM): 0.903; relative viability (NCI-H650; first compound 0.6325 µM): 0.884; relative viability (NCI-H650; first compound 2 µM): 0.874; relative viability (NCI-H1650; first compound 0.02 µM): 0.343; relative viability (NCI-H1650; first compound 0.2 µM): 0.357; relative viability (NCI-H1650; first compound 0.6325 µM): 0.318; relative viability (NCI-H1650; first compound 2 µM): 0.307; relative viability (EPLC-272H; first compound 0.02 µM): 0.334; relative viability (EPLC-272H; first compound 0.2 µM): 0.313; relative viability (EPLC-272H; first compound 0.6325 µM): 0.239; relative viability (EPLC-272H; first compound 2 µM): 0.251; relative viability (HARA; first compound 0.02 µM): 0.268; relative viability (HARA; first compound 0.2 µM): 0.266; relative viability (HARA; first compound 0.6325 µM): 0.191; relative viability (HARA; first compound 2 µM): 0.213; relative viability (NCI-H2228; first compound 0.02 µM): 0.355; relative viability (NCI-H2228; first compound 0.2 µM): 0.342; relative viability (NCI-H2228; first compound 0.6325 µM): 0.332; relative viability (NCI-H2228; first compound 2 µM): 0.266; relative viability (NCI-H2087; first compound 0.02 µM): 0.63; relative viability (NCI-H2087; first compound 0.2 µM): 0.722; relative viability (NCI-H2087; first compound 0.6325 µM): 0.574; relative viability (NCI-H2087; first compound 2 µM): 0.707; relative viability (NCI-H2170; first compound 0.02 µM): 0.25; relative viability (NCI-H2170; first compound 0.2 µM): 0.253; relative viability (NCI-H2170; first compound 0.6325 µM): 0.277; relative viability (NCI-H2170; first compound 2 µM): 0.202; relative viability (LOU-NH91; first compound 0.02 µM): 0.397; relative viability (LOU-NH91; first compound 0.2 µM): 0.417; relative viability (LOU-NH91; first compound 0.6325 µM): 0.472; relative viability (LOU-NH91; first compound 2 µM): 0.457; relative viability (NCI-H2085; first compound 0.02 µM): 0.929; relative viability (NCI-H2085; first compound 0.2 µM): 0.838; relative viability (NCI-H2085; first compound 0.6325 µM): 0.85; relative viability (NCI-H2085; first compound 2 µM): 0.63; relative viability (NCI-H441; first compound 0.02 µM): 0.28; relative viability (NCI-H441; first compound 0.2 µM): 0.238; relative viability (NCI-H441; first compound 0.6325 µM): 0.316; relative viability (NCI-H441; first compound 2 µM): 0.272; relative viability (PC-3 [JPC-3]; first compound 0.02 µM): 1.04; relative viability (PC-3 [JPC-3]; first compound 0.2 µM): 0.709; relative viability (PC-3 [JPC-3]; first compound 0.6325 µM): 0.656; relative viability (PC-3 [JPC-3]; first compound 2 µM): 0.469; relative viability (H3255; first compound 0.02 µM): 0.591; relative viability (H3255; first compound 0.2 µM): 0.514; relative viability (H3255; first compound 0.6325 µM): 0.521; relative viability (H3255; first compound 2 µM): 0.421
